Assay results: patent US11179380B2, “Compounds and compositions for use in treating psoriasis” (SOLVOTRIN THERAPEUTICS LTD, priority 2017, dated 2021)
Values belong to the compound of their own block, whether it stands above or below them.

Experiments:
[1] = Log P from reversed-phase TLC Rf/Rm values (MeOH in water mobile phases); conditions: for Rm: calculated from Rf; for Extrapolated Rm (y value): theoretical Rm at 0% organic modifier
Method: The partition coefficient (P) is used to describe the lipophilicity of a drug. It is defined as the ratio of equilibrium concentrations of a drug in an organic phase (Corg) and an aqueous phase (Caq).
Most commonly the organic solvent is n-octanol and the other solvent is water. Hydrophobic molecules will have a high P value while hydrophilic molecules will have a low P value.
Rm values were calculated from Rf values that were obtained at three different mobile phase compositions (40, 50 and 60% MeOH in water).
The Rm value was calculated using the following equation: […]
The theoretical Rm value at 0% organic modifier was calculated by extrapolating from the calibration curves that were obtained. These values were then correlated to the literature log P of two reference compounds (methyl benzoate and paracetamol).

[2] = literature log P of reference compounds; cited from earlier work
[3] = test system: IMQ on mouse skin; conditions: topical; cited from earlier work
[4] = test system: normal healthy skin; experiment: Assessment of erythema and itchiness after topical application to shaved forearm; assay type: in vivo; conditions: for temporal erythema response: 5% in petroleum jelly
Method: Test article dispersed in petroleum jelly was applied to a 2×2 cm patch of shaved forearm (n=3). At specified time intervals the degree of erythema was recorded by blinded observers on a scale of 1-4 (n=3). Itchiness was observed by scratching behaviour also by blinded observers on a scale of 1-4. The time course of erythema resolution was recorded at 30 minute intervals.

[5] = test system: Aldara-treated mice; experiment: Aldara-induced model of psoriasis in mice, clinical scoring (PASI); assay type: in vivo, mice (C57BL/6J); conditions: for inflammation in the mouse psoriasis model: summary statement in RESULTS
Method: Specific Pathogen-Free female C57BL/6J strain mice, 6-8 weeks of age, were obtained from a commercial supplier and bred in-house (JAX, Charles River). Mice were fed irradiated diet and housed in individually ventilated cages (Tecniplast, UK) under positive pressure. All animal experiments were performed in compliance with the Health Products Regulatory Authority and approved by the Trinity College Dublin's BioResources ethical review board.
The Aldara-induced model of psoriasis was used (Flutter and Nestle, 2013; Morwietz, 2015; Russell et al., 2013; van der Fits et al., 2009). The dorsal skin of mice was shaved and depilated on day −1. Mice were that were in the telogen phase (resting phase) of the hair cycle were chosen for experiments. Mice with visual skin damage from shaving were excluded. Mice were then randomly divided into groups for treatment with topical application of vehicle (white petroleum jelly) or Solvotrin test compounds, prepared in white petroleum jelly. On day 0, mice were scored for disease signs, as per below. After which 62.5 mg of Aldara™ cream (5% Imiquimod; MEDA Pharmaceuticals) was applied to a defined area of the shaved dorsal skin surface. Thirty minutes after the Aldara application, test compounds or vehicle was applied to the dorsal flank, to cover the entire Aldara-challenged surface, with an even layer of the white petroleum. This process was repeated for a further 5 days. Mice were scored daily. On day 6 the mice were euthanized for tissue collection.
The skin of mice was scored for signs of psoriasis-like inflammation for a total of 7 days, (i.e. days 0-6), as described (van der Fits et al., 2009). Mice were scored according to 3 parameters: erythema (the redness of skin); thickening of the skin; and scaling (dryness and flaking of the skin). For each parameter, the mice were scored on a scale from 0-4. Mice with no pathology were scored 0. Mice with mild pathology scored 1. […] The total, or Psoriasis Area and Severity Index (PASI), score was the cumulative score of all three parameters. Therefore for each mouse studied the PASI score can range between 0 to 12.
Power calculations on data from previous studies have shown that a sample size of at least 6 will detect significant difference (P<0.05) in PASI scores between groups. ANOVA and Dunnett Multiple Comparison Test determined statistical differences between multiple groups. Two tailed Student's t-test was used to compare statistical differences between two groups.
Unless otherwise specified percentage concentration of a test compound in a composition refers to the weight percent of said test compound in the composition. For example, application of 2% compound X, means application of a composition comprising 2 weight percent of compound X.

[6] = test system: Peripheral Blood Mononuclear Cells (PBMCs); experiment: Cytokine-expressing cells in stimulated PBMC (anti-CD3, PMA and ionomycin), flow cytometry; assay type: cell-based, human
Method: PBMC were isolated from leukocyte-enriched buffy coats obtained from anonymous healthy donors with consent from the Irish Blood Transfusion Service, St James' Hospital, Dublin, Ireland. PBMC were pre-treated with test compounds or a vehicle control at the indicated concentrations for 6 hours prior to stimulation by anti-CD3 for 4 days and re-stimulated with PMA and ionomycin for 6 hours. Thereafter cells were counted using flow cytometry.

[7] = test system: Primary human DC; experiment: Cytokine concentrations in LPS-stimulated monocyte-derived dendritic cells, ELISA; assay type: cell-based; conditions: LPS 24 hours
Method: Primary human DC were produced from CD14+ monocytes isolated from healthy human PBMC via magnetic cell sorting. Monocyte-derived DC were pre-treated with test compounds or a vehicle control for 6 hours prior to stimulation by LPS for 24 hours. Cytokine concentrations in cell supernatants were determined by ELISA (eBiosciences).

[8] = activated T-cells, various concentrations
[9] = 3% in petroleum jelly, relative to Vehicle, statistically significant (P<0.05) only on day 3
[10] = 3% in petroleum jelly, vs Vehicle
[11] = in petroleum jelly (concentration not given), vs Vehicle

- Rf ([1]; 40% MeOH in water): 0.5460
- Rm ([1]; 40% MeOH in water): −0.0801
- Rf ([1]; 50% MeOH in water): 0.6270
- Rm ([1]; 50% MeOH in water): −0.2256
- Rf ([1]; 60% MeOH in water): 0.7460
- Rm ([1]; 60% MeOH in water): −0.4679
- Extrapolated Rm (y value) [1]: 0.7116
SMILES: CC(=O)Nc1ccc(O)cc1 [Paracetamol, paracetamol, reference compound]
- Log P (ref) [2]: 0.48 (2)

SMILES: CCOC(=O)c1ccc(C#Cc2ccc3c(c2)C(C)(C)CCS3)nc1 [tazarotene]
- IMQ-induced increased thickness of epidermal and subcutaneous tissue [3]: exacerbated
- thickness reduction [3]: ineffective

SMILES: O=C(O)c1ccccc1O [salicylic acid]
- cumulative irritancy score (irritancy/erythema) ([4]; 2%): did cause erythema

SMILES: C=C1/C(=C\C=C2/CCC[C@]3(C)[C@@H]([C@H](C)/C=C/[C@@H](O)C4CC4)CC[C@@H]23)C[C@@H](O)C[C@@H]1O [calcipotriol]
- cumulative irritancy score (irritancy/erythema) ([4]; 0.005%): did cause erythema
- IMQ-induced increased thickness of epidermal and subcutaneous tissue [3]: exacerbated
- thickness reduction [3]: ineffective

SMILES: O=C(O)c1cccnc1 [niacin]
- temporal erythema response [4]: persisted in the niacin case up to six hours
- skin irritation ([4]; in vivo): causes skin irritation

SMILES: CC(=O)Oc1ccccc1C(=O)O[C@H]1COC2C1OC[C@H]2OC(=O)c1cccnc1 (some centres unmarked) [ST0702, Isosorbide-2-aspirinate-5-nicotinate]
- chromatographic logP [1]: 4.1
- Rf ([1]; 40% MeOH in water): 0.0460
- Rm ([1]; 40% MeOH in water): 1.3168
- Rf ([1]; 50% MeOH in water): 0.1200
- Rm ([1]; 50% MeOH in water): 0.8653
- Rf ([1]; 60% MeOH in water): 0.2730
- Rm ([1]; 60% MeOH in water): 0.4254
- Extrapolated Rm (y value) [1]: 3.0977
- PASI scores ([5]; 0.5% topical, relative to Vehicle-treated mice): significantly lower on days 3 (P<0.05) and 4 (P<0.01)
- erythema score ([5]; 0.5 or 5% topical, vs Vehicle): significant, and dose-dependent, reductions
- scaling score ([5]; 0.5 or 5% topical, vs Vehicle): significant, and dose-dependent, reductions
- skin thickness score ([5]; 0.5 or 5% topical, vs Vehicle): significant, and dose-dependent, reductions
- efficacy in the ALDARA model ([5]; 2%): effective
- skin inflammation (PASI score) ([5]; higher dose (5%) topical, vs Vehicle): reduced skin inflammation on days 3-5 (P<0.01-0.001)
- progressive development of psoriasis-like skin inflammation ([5]; topical in white petroleum jelly, two separate experiments (3%; 0.5 or 5%), vs Vehicle): significantly (P<0.05-0.001) reduced
- number of IL-17 expressing cells [6]: inhibitory effect
- percentage of TNF-alpha expressing cells ([6]; 50 μM): reduced
- GM-CSF [6, 8]: appreciable effect
- IL-2 [6, 8]: not to have any appreciable effect
- percentage of IFN-gamma expressing cells ([6]; in comparison to control): significantly reduced
- IL-10 [7]: no appreciable effect
- cumulative irritancy score (irritancy/erythema) ([4]; 2%): did not cause irritancy/erythema
- erythema/irritation ([4]; 2% in petroleum jelly, 1 hour after application): did not cause erythema/irritation
- temporal erythema response [4]: resolved rapidly

SMILES: CC(=O)Oc1ccccc1C(=O)OC1COC2C(OC(=O)c3ccccc3O)COC12 (centres unmarked) [ST0701, Isosorbide-2-aspirinate-5-salicylate]
- PASI scores [5, 9]: reduced the PASI scores
- erythema [5, 10]: reduced levels of elevated skin thickness and erythema
- skin thickness [5, 10]: reduced levels of elevated skin thickness
- inflammation in the mouse psoriasis model [5]: did not inhibit inflammation

SMILES: CC(=O)Oc1ccccc1C(=O)O[C@H]1CO[C@H]2[C@@H]1OC[C@H]2OC(=O)c1ccncc1 [ST0703, Isosorbide-2-aspirinate-5-isonicotinate]
- PASI scores [5, 9]: reduced the PASI scores
- erythema [5, 10]: reduced levels of elevated skin thickness and erythema
- skin thickness [5, 10]: reduced levels of elevated skin thickness
- inflammation in the mouse psoriasis model [5]: did not inhibit inflammation

SMILES: O=C(O[C@@H]1CO[C@H]2[C@@H]1OC[C@@H]2OC(=O)c1ccccc1O)c1cccnc1 [ST0702Sal, Isosorbide-2-salicylate-5-nicotinate]
- PASI scores ([5]; in petroleum jelly (concentration not given), relative to Vehicle, days 4, 5 and 6): significantly reduced
- Aldara-induced scaling [5, 11]: significantly (P<0.001) reduced
- erythema [5, 11]: not altered
- skin thickness [5, 11]: not altered

SMILES: COC(=O)c1ccccc1 [Methyl Benzoate, methyl benzoate, reference compound]
- Log P (calculated) [1]: 2.2
- Rf ([1]; 40% MeOH in water): 0.1460
- Rm ([1]; 40% MeOH in water): 0.7671
- Rf ([1]; 50% MeOH in water): 0.1867
- Rm ([1]; 50% MeOH in water): 0.6391
- Rf ([1]; 60% MeOH in water): 0.3600
- Rm ([1]; 60% MeOH in water): 0.2499
- Extrapolated Rm (y value) [1]: 1.845
- Log P (ref) [2]: 2.2 (1)

SMILES: C[C@H]1C[C@H]2[C@@H]3CCC4=CC(=O)C=C[C@]4(C)[C@@]3(F)[C@@H](O)C[C@]2(C)[C@@]1(O)C(=O)CCl [clobetesol]
- thickness reduction [3]: best
